# From patent publication US20070087064A1, “Composition for preventing and treating climacteric symptoms comprising the extract of sophorae fructus” (DREXGENEBIOTECH CO., LTD., priority 2003, published 2007)
# Legend:
# [1] = test system: Dpd (deoxypyridinoline); assay: Dpd concentration in blood plasma of ovari-ectomized rats; assay type: in vivo, rat
# Description: (§1) For removal of ovary, a 12-week old white rat was anesthetized by ether. The rat got a shave on its back by a razor. Oophorectomy was performed after sterilizing the operating area with 70% ethanol. Particularly, skin was cut 2˜3 cm along the spinal column of the abdominal lower-flank region of one side, and then, muscle and peritoneum were incised 1.5 cm to exposure ovary. After ligating oviduct by a silk, the ovary was cut off and peritoneum, muscle and skin were sutured by a silk. The other side ovary was ectomized by the same procedure. Sham operation was performed for a control group, which opened peritoneum but sutured without taking ovary out. A period of recovery was 1 week.
# Test animals were classified into three groups; a normal group (non-ovari-ectomized group), a control group 1 (sham-operated group) and an ovari-ectomized group. […]
# Dpd concentration in blood plasma obtained above was measured by competitive enzyme immunoassay using a Dpd concentration measuring kit (Pyrilinks-D, Quidel Corporation, USA) in which an anti-Dpd antibody was included. […] After reaction was finished, OD450 was measured. Then, Dpd concentration was calculated by using a calibration curve made to explain the relation between Dpd content and optical density (FIG. 11).
# Based on the result of the above Example <5-4>, changes of Dpd concentration after administering each sample for 9 weeks were quantified by the below formula. […]
# In order to confim the effects of the extract of Sophorae Fructus of the present invention, Dpd concentrations in groups administered with the extract of Sophorae Fructus of the present invention were calculated by comparing with Dpd concentration in a control group 2 (ovari-ectomized) in which osteoporosis was progressed much. […]
# [2] = test system: TGF-beta; assay: TGF-beta secretion in osteoblasts, ELISA; assay type: cell-based, human; settings: MG-63 cells
# Description: (§2) In order to investigate whether the extract of Sophorae Fructus of the present invention could stimulate the secretion of IGF-1 and TGF-beta in osteoblasts, each sample was treated to MG-63 human osteoblast-like cells by the same method as used in Example <4-4>, and then, ELISA and RT-PCR were performed to measure the secretion and the expression of IGF-1 and TGF-beta. The expression levels of IGF-1 and TGF-beta were represented by a comparative rate (%) to that of a control. ELISA was performed by using ELISA kit (Quantikine, R&D system) according to the provided protocol to investigate the secretion of IGF-1 and TGF-beta. Then, optical density was measured by the same method as used in the Example <4-4>. RT-PCR was also performed by the same method as used in the above Example <4-4>. Each primer used for the RT-PCR was presented below.
# [3] = test system: IGF-1; assay: IGF-1 secretion in osteoblasts, ELISA; assay type: cell-based, human; settings: MG-63 cells, 10^-4%
# Description: as §2
# [4] = Calcium concentration in blood plasma of ovari-ectomized rats, OCPC method; assay type: in vivo, rat
# Description: as §1, with “week. Test animals were classified into three groups; a normal group (non-ovari-ectomized group), a control group 1 (sham-operated group) and an ovari-ectomized group. […] Therefore, measuring optical density of the magenta color leads to the quantification of calcium in a reagent. […]” for “week.”
# [5] = test system: MG-63 human osteoblast-like cells; assay: Osteoblast proliferation, MTT method; assay type: cell-based; settings: MG-63 cells, 72 hours
# Description: MG-63 human osteoblast-like cells were distributed from Korean Cell Line Bank of Seoul National University College of Medicine, Seoul, Korea, which were sub-cultured for fuirther use. The frozen MG-63 human osteoblast-like cells were melted in a 37° C. water bath for 1 minute, followed by centrifugation with 1300 rpm for 5 minutes to eliminate supernatant. The obtained pellet was re-suspended in DMEM supplemented with 10% FBS, which was, then, distributed in a […] culture flask for further culture. The duration of culture was 2 weeks for cell stability. After confirming under a microscope that a monolayer was stably formed, the cells were used for the experiments. In order to investigate the osteoblast proliferation after the treatment of an extract of Sophorae Fructus, MG-63 human osteoblast-like cells of the above Example <4-1> were treated with the Sophorae Fructus extract powder of Example 1 (R-G), the Sophorae Fructus enzyme extract powder of Example 2 (R-A), and the food composition comprising an extract of Sophorae Fructus of Example 3 (R-P), which were cultured for 3 days. The effects of the above extracts on cell proliferation were measured by MTT method. […] After complete mixing, color changes were checked and OD570 was measured using an ELISA plate reader within an hour.
# [6] = Weight changes and weight gaining rate in ovari-ectomized rats; assay type: in vivo, rat
# Description: As the experimental animals, white female SD (Sprague-Dawley) rats (230˜250 g) were purchased from Hallym Research Institute of Experimental animals (Kyunggido, Korea). The rats were raised at 23±1° C., under 40˜60% humidity and 12-hour light and shade cycle. Feed (solid feed, Hallym Research Institute of Experimental animals, Kyunggido, Korea) and water were given freely, but just water was supplied on the day before drawing blood. For removal of ovary, a 12-week old white rat was anesthetized by ether. The rat got a shave on its back by a razor. Oophorectomy was performed after sterilizing the operating area with 70% ethanol. Particularly, skin was cut 2˜3 cm along the spinal column of the abdominal lower-flank region of one side, and then, muscle and peritoneum were incised 1.5 cm to exposure ovary. After ligating oviduct by a silk, the ovary was cut off and peritoneum, muscle and skin were sutured by a silk. The other side ovary was ectomized by the same procedure. Sham operation was performed for a control group, which opened peritoneum but sutured without taking ovary out. A period of recovery was 1 week. Test animals were classified into three groups; a normal group (non-ovari-ectomized group), a control group 1 (sham-operated group) and an ovari-ectomized group. The ovari-ectomized group was sub-divided into a control group 2, which was not administered with a sample, a 17-beta estradiol treating group (E group), an extract of Sophorae Fructus of Example 1 administering group (R-G group), an enzyme extract of Sophorae Fructus of Example 2 administering group (R-A group), a food composition comprising the extract of Sophorae Fructus of Example 3 administering group (R-P group) and a soybean ex-powder administering group (S-S group) by 10 animals each (Table 1). […] Weights of each group of the above Example <5-2> were measured with an electronic scale, from which weight gaining rate per day was calculated by the below formula. […]
smiles,measurement,setting,value
"C[C@]12CC[C@@H]3c4ccc(O)cc4CC[C@H]3[C@@H]1CC[C@@H]2O [E, 17-beta estradiol]",Dpd concentration in blood plasma after 9 weeks of administration (10th week),"[1]; 0.556 g/kg/day oral, E group 1 g/kg/day intraperitoneal",rapid drop of Dpd concentration
same,"decrease rate of Dpd, regarding the amount of decreased Dpd of E group as 100%",[1]; 9 weeks administration,100%
same,ΔDpd value (Dpd before administration versus after 9-week administration),[1]; negative = decrease of Dpd concentration,negative
same,TGF-beta concentration (ELISA),[2]; 10^-4 to 10^-10%,evenly higher TGF-beta concentration
same,TGF-beta concentration / secretion promoting activity (ELISA),[2]; minimum concentration 10^-12%,decreased to the similar level to that in a control group
same,"IGF-1 concentration (ELISA), comparison of groups",[3],highest IFG-1 concentration
same,"calcium concentration in blood plasma, 10 week","[4]; after 9 weeks administration (0.556 g/kg/day oral; estradiol 1 g/kg/day intraperitoneal), mean ± SD",17.96 ± 1.334
same,course of calcium concentration in blood plasma after start of administration,[4]; from the first week on,rapid increase of calcium concentration
same,"osteoblast proliferation effect (MTT, OD570)",[5]; 10^-4 to 10^-12%,cell proliferation depended on its concentration
same,osteoblast proliferation at low concentration versus high concentration,[5]; low concentration 10^-10% (estradiol 10^-10% and 10^-12%),proliferation decreased
same,Weight gaining rate (g/day),"[6]; ovari-ectomized SD rats, 12 to 22 weeks old, 0.556 g/kg/day oral, E group 1 g/kg/day intraperitoneal, mean ± SD, * significant p < 0.05",1.0095 ± 0.1* g/day
same,Weight (g): Final weight (22 weeks old),"[6]; ovari-ectomized SD rats, after 9 weeks administration (0.556 g/kg/day oral; E group 1 g/kg/day intraperitoneal), mean ± SD",302.4 ± 29.885 g
same,weight gaining after removal of ovary,"[6]; ovari-ectomized rats, versus rapid weight gaining in control group 2",slow
